Test results from patent US20240425865A1, “METHODS FOR TREATING CELLULAR INFLAMMATION INDUCED BY AFB1” (priority 2023, published 2024).

Legend:
RelA / miR-9 promoter = type: cell-based
RelA [1] = assay: Western blot of RelA in MPC-5 cells treated with AFB1; type: cell-based
Method: To investigate whether RelA is involved in the reduction of the expression level of miR-9 in glomerular podocytes by AFB1, relative protein expression levels of RelA in glomeruli at 0, 2, and 4 weeks treated with AFB1 of 0.75 mg/kg, and MPC-5 cells treated with AFB1 of 5, 10, 20 uM were detected, respectively, by adopting a Western blot manner.

miR-9 [2] = conditions: mouse, in vivo, 0.75 mg/kg
RelA / TRIM7 = RelA / TRIM7 (Mus musculus, UniProt Q04207); type: cell-based
RelA [3] = target: RelA (Mus musculus, UniProt Q04207); assay: IP-MS of proteins interacting with RelA in MPC-5 cells; type: cell-based
Method: For the analysis of RelA-binding proteins, IP-MS was used to detect proteins interacting with RelA. After incubating THE MPC-5 cells with RelA antibody overnight at 4° C., MPC-5 lysates were mixed with Protein A/G agarose beads (Amersham Biosciences) and then sodium dodecyl sulfate-polyacrylamide gel electrophoresis (SDS-PAGE) analysis and Caumas blue staining were performed for isolation of target proteins. Then, protein samples were sent to Suzhou Mass-elife Biotechnology Co. Ltd (Suzhou, China) for further analysis. For liquid chromatography-mass spectrometry (LC-MS) analysis, proteins were re-solubilized in a mixture of acetonitrile and water, and sample data was analyzed using an ultra-high-performance liquid chromatography (UHPLC) system coupled to a high-resolution mass spectrometer in Mass-elife Biotech Co. Ltd. of Suzhou (Suzhou, China). Identified proteins were analyzed for abundance using Byonic 2.13.17 (Protein Metrics, California, USA) to retrieve MS raw files on the uniport human protein database.

RelA [4] = conditions: mouse, in vivo, 0.75 mg/kg
miR-9 [5] = assay: qRT-PCR of miR-9 in MPC-5 treated with AFB1; type: cell-based
Method: • (1) glomeruli (n=6) were treated with AFB1 of 0.75 mg/kg at 0, 2, and 4 weeks; • (2) MPC-5 (n=6) was treated with AFB1 of 5, 10, and 20μ M; • (3) Relative expression levels of miR-9 in the glomeruli treated with (1) and in the MPC-5 treated with (2) were detected by adopting a qRT-PCR manner, respectively. u6 RNA was used as an internal reference for miRNA, a sequence of a forward primer of U6 gene was shown in SEQ ID NO.1 in Table 1, and a sequence of a reverse primer of U6 gene was shown in SEQ ID NO.2. A sequence of a forward primer of miR-9 was shown in SEQ ID NO.3, a sequence of a reverse primer of miR-9 was shown in SEQ ID NO.4, and a sequence of a primer of a stem-loop sequence that is used to increase a length of a miR-9 reverse transcription product was shown in SEQ ID No.45.

3′-UTR of CXCR4 gene = assay: luciferase reporter (pMIR) with CXCR4 3′-UTR, co-transfection in MPC-5 cells; type: cell-based; conditions: FIG. 1C
From the text: To validate the binding of miR-9 to the CXCR4 gene, 3′-UTR targeting sequences of a wild-type CXCR4 gene and a mutant-type CXCR4 gene (target site ACCAAAG was mutated to ACGGCGC) were constructed into a luciferase reporter vector pMIR to obtain recombinant luciferase reporter vectors of the wild-type and the mutant-type. Subsequently, miR-9 and negative control miRNAs (a sequence of a primer as shown in SEQ ID NO.7 and SEQ ID NO.8) were co-transfected with the recombinant luciferase reporter vector of the wild-type or the mutant type into MPC-5 cells, and results were as shown in FIG. 1C. […] The control miRNAs were unable to targetedly bind to either the 3′-UTR of the wild-type CXCR4 or the 3′-UTR of the mutant-type CXCR4, and the fluorescence values were […].

glomeruli = assay: rAAV9-CAG-GFP-miR-9 transfection of AFB1-treated mouse, glomeruli readouts; type: in vivo; conditions: miR-9 increased via rAAV9-CAG-GFP-miR-9
Method: Relevant agents include fluorescently labeled Gr-1 antibody (CST), fluorescently labeled IFN-γ antibody (CST) or CD86 antibody (fluorescent secondary antibody: goat anti-rabbit IgG) (Abcam) and CD68 antibody (fluorescently secondary antibody: goat anti-rabbit IgG) (Abcam), and the rest of the same agents as above.
To understand the ability of miR-9 in down-regulating the CXCR4/TXNIP/NLRP3 inflammatory vesicle pathway during podocytes inflammation induced by AFB1, a 4-week-old mouse was treated with AFB1 of 0.75 mg/kg, and rAAV9-CAG-GFP-miR-9 or CAG-GFP luciferase control vector was transfected into the treated mouse, and an expression level of miR-9 in glomeruli after transfection was detected by qRT-PCR.

Chain of RelA / TRIM7 (Q04207 whole entry, looked up): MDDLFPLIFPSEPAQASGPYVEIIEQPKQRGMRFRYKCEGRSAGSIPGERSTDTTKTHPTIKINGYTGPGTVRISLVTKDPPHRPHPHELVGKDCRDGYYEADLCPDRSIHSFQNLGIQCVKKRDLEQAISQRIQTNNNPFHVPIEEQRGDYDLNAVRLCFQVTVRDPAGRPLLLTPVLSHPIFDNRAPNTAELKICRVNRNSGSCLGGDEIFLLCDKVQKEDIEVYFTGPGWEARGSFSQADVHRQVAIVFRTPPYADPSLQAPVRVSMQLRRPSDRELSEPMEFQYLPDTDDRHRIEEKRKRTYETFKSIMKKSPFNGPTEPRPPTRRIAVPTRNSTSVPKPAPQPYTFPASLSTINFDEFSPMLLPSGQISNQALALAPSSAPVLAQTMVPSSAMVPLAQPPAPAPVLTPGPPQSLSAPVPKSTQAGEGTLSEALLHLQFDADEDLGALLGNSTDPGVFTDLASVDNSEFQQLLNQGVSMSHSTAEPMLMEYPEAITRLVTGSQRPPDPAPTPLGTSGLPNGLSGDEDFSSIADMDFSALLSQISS
Chain of RelA (Mus musculus, UniProt Q04207) (Q04207 whole entry, looked up): as above

## Aflatoxin B1 [AFB1]
RelA / miR-9 promoter
  RelA binding in the miR-9 promoter region: reduced RelA binding
RelA [1]
  p-RelA/RelA in MPC-5 cells: significant reduction
miR-9 [2]
  expression level of miR-9 in glomeruli: significantly reduced
RelA / TRIM7
  binding of RelA and TRIM7: promoted the binding
  expression level of RelA protein: down-regulated
  ubiquitination of RelA: increased the ubiquitination
RelA [3]
  TRIM7 among RelA-interacting proteins: significantly enriched
RelA [4]
  p-RelA/RelA in glomeruli: significant reduction
miR-9 [5]
  expression level of miR-9 in cells (MPC-5): significantly reduced

## miR-9: mmu-miR-9-5p MIMAT0000142; nucleotide sequence shown in SEQ ID No. 5 (UCUUUGGUUAUCUAGCUGUAUGA; chemistry not given here)
3′-UTR of CXCR4 gene; co-transfected into MPC-5 cells
  luciferase fluorescence values, wild-type CXCR4 3′-UTR reporter: relative decrease
3′-UTR of CXCR4 gene; target site ACCAAAG mutated to ACGGCGC, MPC-5 cells
  luciferase fluorescence values, mutant-type CXCR4 3′-UTR reporter: unchanged
glomeruli; AFB1-treated mouse, ELISA
  secretion of IL-1β in glomeruli: decreased secretion
  secretion of IL-6 in glomeruli: decreased secretion
  secretion of TNF-α in glomeruli: decreased secretion
glomeruli; AFB1 for 4 weeks, HE staining and flow cytometry
  inflammatory cell infiltration in glomeruli: attenuated inflammatory cell infiltration
